PMC12428554, “Anti-HIV and Antimicrobial Activity of 7-Hydrazino-8-hydroxyquinoline-Based Aromatic Hydrazones” (International Journal of Molecular Sciences, 2025)
Values joined by “and” are separate entries in the source; they are usually repeats but may differ in a detail not shown here. Equal values may be shown once.

Key:
Assay type in all cases: cell-based
C. albicans ATCC 10231 = assay: MIC by twofold serial dilution, C. albicans; conditions: Candida albicans, ATCC10231; 24 h, 35 °C; read-out: MIC (Mean ± SE) C. albicans ATCC 10231
Procedure: (§1) Candida albicans ATCC 10231, Pseudomonas aeruginosa ATCC 27853, and Staphylococcus aureus ATCC 29213 strains were obtained from the American Type Culture Collection (ATCC; Rockville, MD, USA). The subculture and inoculum preparation were performed according to CLSI M27-A3 for C. albicans on yeast extract peptone dextrose (YPD) agar (HiMedia, Mumbai, Maharashtra, India) and RPMI-1640 medium (PanEco, Moscow, Russia) with MOPS (3-(N-morpholino) propanesulfonic acid, >99.5%; PanEco, Moscow, Russia), and M7-A11 for P. aeruginosa and S. aureus on Mueller-Hinton agar (MHA; HiMedia, Mumbai, Maharashtra, India) and Mueller-Hinton broth (MHB; HiMedia, Mumbai, Maharashtra, India). The stock cell concentrations of fungus and bacteria were 1 × 10^6 and 1 × 10^8 cells/mL, respectively. A working suspension of C. albicans (5.0 × 10^2 cells/mL) was prepared by two-step dilution of the broth concentration with the RPMI-1640 medium. Assay suspensions of P. aeruginosa and S. aureus (1.0 × 10^6 cells/mL) were prepared by diluting the concentration with Mueller-Hinton broth (HiMedia, Mumbai, Maharashtra, India). Amphotericin B (Sigma-Aldrich, Burlington, MA, USA) and gentamicin (Sigma-Aldrich, Burlington, MA, USA) were used as secondary pharmaceutical standards.
(§2) The minimum inhibitory concentration (MIC) was determined by the twofold serial dilution method, according to CLSI M27-A3 [33] and M07-A11 [34], in three independent experiments with four replicates each. Amphotericin B was used as a positive control for fungus; gentamicin was used as a positive control for bacteria. Stock solutions except gentamicin were prepared in DMSO at a concentration of 6400 μg/mL. Gentanicin was solubilized in sterile water at a concentration of 1280 μg/mL. Stock solutions of the tested substances were diluted to the final concentrations in the assay medium and 100 μL of each sample was added to the wells of 96-well plates, and then 100 μL of inoculum was added. Rows 11 and 12 were left for the negative control (medium with inoculum without the drug) and sterility control. The plates were incubated for 24 h at 35 °C in the case of C. albicans and at 37 °C in the case of P. aeruginosa and S. aureus. The tested concentration for gentamicin ranged from 0.0625 to 32 μg/mL; for other compounds, it ranged from 0.125 to 64 μg/mL. The MIC value was determined using spectrophotometer. The MIC was taken to be the lowest drug concentration that caused complete inhibition of microorganism growth compared to the control. The final MIC values were reported as the means with standard error (SE). Standard errors for µg/mL values less than 0.01 were excluded; standard errors for µM values less than 0.1 were excluded (Table 3).

[1] = Sulforhodamine B (SRB) cytotoxicity assay; conditions: human, Huh-7.5 cells
Procedure: Huh7.5 cells were grown in the DMEM/F12 (2:1) medium supplemented with 10% FBS (BioSera, Cholet, France), 2 mM L-glutamine, 100 U/mL penicillin, and 100 µg/mL streptomycin in the presence of 5% CO2 at 37 °C. Cells were re-seeded every three days at a ratio of 1:3 or 1:5. After an incubation period, cell monolayers were fixed with 10% (w/v) trichloroacetic acid and stained for 30 min by adding 100 µL of 0.057% (w/v) SRB solution to each well, after which the excess dye is removed by washing repeatedly with 1% (v/v) acetic acid. The protein-bound dye is dissolved in 10 mM Tris-base solution with pH 10.5 for OD determination using a Tecan Spark multimode microplate reader via absorbance at 510 nm.

[2] = Neutral red (NR) cytotoxicity assay; conditions: human, Huh-7.5 cells
Procedure: Huh7.5 cells were grown in the DMEM/F12 (2:1) medium supplemented with 10% FBS (BioSera, Cholet, France), 2 mM L-glutamine, 100 U/mL penicillin, and 100 µg/mL streptomycin in the presence of 5% CO2 at 37 °C. Cells were re-seeded every three days at a ratio of 1:3 or 1:5.
The 40 µg/mL neutral red working solution was prepared, incubated overnight at the same temperature as the cells, and then centrifuged for 10 min at 600× g to remove any precipitated dye crystals. After the incubation with compounds tested at 37 °C in 5% CO2 for 48 h, cells were washed with PBS and then 100 µL of neutral red medium was added to each well of the plate. The plate was incubated for 2 h at the appropriate culture conditions, then the neutral red medium was removed and the cells were washed with PBS. After that 150 µL neutral red destain solution per well was added (50% ethanol, 49% deionized water, 1% glacial acetic acid (Sigma-Aldrich, Burlington, MA, USA). After the neutral red was extracted from the cells and formed a homogeneous solution, the result of the analysis was evaluated using a Tecan Spark multimode microplate reader via absorbance at 540 nm.

P. aeruginosa ATCC 27853 = assay: MIC by twofold serial dilution, P. aeruginosa; conditions: Pseudomonas aeruginosa, ATCC27853; 24 h, 37 °C; read-out: MIC (Mean ± SE) P. aeruginosa ATCC 27853
Procedure: as §1, §2

MTT cytotoxicity assay = conditions: human, Huh-7.5 cells
Procedure: Huh7.5 cells were grown in the DMEM/F12 (2:1) medium supplemented with 10% FBS (BioSera, Cholet, France), 2 mM L-glutamine, 100 U/mL penicillin, and 100 µg/mL streptomycin in the presence of 5% CO2 at 37 °C. Cells were re-seeded every three days at a ratio of 1:3 or 1:5. Stock solutions were diluted in DMSO (BioReagent of molecular biology grade, Sigma, St. Louis, MO, USA), and the final DMSO concentration was 1%. After 24 h (30–40% monolayer), the solutions of the studied compounds diluted at different concentrations were introduced to the culture medium. After incubation at 37 °C in 5% CO2 for 48 h, a freshly prepared solution of thiazolyl blue tetrazolium bromide at a final concentration of 0.4 mg/mL was added to each well of the plate. Incubation was performed at +37 °C for 2 h. The medium containing unreacted MTT was removed via aspiration. The formed formazan dye was dissolved in 100 µL of isopropanol added to each well of the plate. The result of the analysis was evaluated using a Tecan Spark multimode microplate reader (Tecan Group Ltd., Männedorf, Switzerland) via absorbance at 544 nm.

| Structure (SMILES) | MIC (C. albicans ATCC 10231) | CC50 [1] | CC50 at 48 h [2] | MIC (P. aeruginosa ATCC 27853) | CC50 at 48 h (MTT cytotoxicity assay) |
| --- | --- | --- | --- | --- | --- |
| O=[N+]([O-])c1cccc(/C=N/Nc2ccc3cccnc3c2O)c1 [III, 7-(3-Nitrobenzylidenohydrazinyl)-8-hydroxyquinoline] | 11.3 µg/mL and 36.8 µM | 7.1 ± 0.4 µM | 7.1 ± 0.7 µM | > 64 µg/mL and > 208 µM | 38 ± 9.1 µM |
| Oc1c(N/N=C/c2ccc(F)cc2)ccc2cccnc12 [VI, 7-(4-Fluorobenzylidenohydrazinyl)-8-hydroxyquinoline] | 3.8 µg/mL and 13.6 µM | 7 ± 0.2 µM | 6.7 ± 0.2 µM | > 64 µg/mL and > 228 µM | 45.5 ± 3.6 µM |
| Oc1c(N/N=C/c2ccccc2)ccc2cccnc12 [Compound I, 7-(2-Benzylidenohydrazinyl)-8-hydroxyquinoline] | 4 µg/mL and 15.2 µM | 59.5 ± 12.5 µM | 14.5 ± 3.5 µM | > 64 µg/mL and > 243 µM | 50.5 ± 2.5 µM |
| Oc1c(N/N=C/c2ccc(Br)c(Br)c2)ccc2cccnc12 [V, 7-(3,4-Dibromobenzylidenohydrazinyl)-8-hydroxyquinoline] | 15.3 µg/mL and 36.3 µM | 6.9 ± 0.3 µM | 8.6 ± 0.1 µM | > 64 µg/mL and > 152 µM | 120 ± 7.5 µM |
| COc1ccc(/C=N/Nc2ccc3cccnc3c2O)cc1 [IV, 7-(4-Methoxybenzylidenohydrazinyl)-8-hydroxyquinoline] | 8 µg/mL and 27.3 µM | 40 ± 0.2 µM | 9.1 ± 1.5 µM | > 64 µg/mL and > 218 µM | 47 ± 3.2 µM |
| O=[N+]([O-])c1ccc(/C=N/Nc2ccc3cccnc3c2O)cc1 [II, 7-(4-Nitrobenzylidenohydrazinyl)-8-hydroxyquinoline] | 13 µM and 4 µg/mL | 8 ± 0.1 µM | 21 ± 4 µM | > 64 µg/mL and > 208 µM | 123 ± 13.2 µM |
